Columns and labels:
[1] = Solubility of dye to resin solution; type: physicochemical; conditions: 12.5 mass % polyester resin OKP850 in cyclohexanone:MIBK 1:1, 50° C.
Method: Regarding several kinds of the dyes obtained above, solubility to a resin solution was evaluated. In a solubility test, as the resin solution, there was used a solution having a resin concentration of 12.5 mass % that was prepared by dissolving a polyester resin (product name: OKP850 made by Osaka Gas Chemicals Co., Ltd.) in a mixed solvent (cyclohexanone:methyl isobutyl ketone (MIBK)=1:1). Results are illustrated in Table 5 together with the kinds of the used dyes. Incidentally, the temperature of the resin solution in the solubility test was 50° C., the dye was put into the resin solution, the resultant resin solution was stirred for two hours, and whether or not the dye was dissolved was observed visually. Evaluation criteria of the solubility are as follows.
A: Solubility greater than 10 mass %
B: Solubility greater than 5 mass % and 10 mass % or less
C: Solubility 5 mass % or less

[2] = Absorption characteristic of the dye in dichloromethane; type: physicochemical; conditions: for λ80 (wavelength with 80% transmittance on shorter wavelength side of λmax) / λmax − λ80: dichloromethane, transmittance at λmax set to 10%; for εA (maximum absorption coefficient in a wavelength of 430 to 550 nm) / εB (maximum absorption coefficient in a wavelength of 670 to 730 nm) / εB/εA / λmax (maximum absorption wavelength): dissolved in dichloromethane
Method: The dyes obtained above were each dissolved in dichloromethane, and using an ultraviolet-visible spectrophotometer (made by Hitachi High Technologies Co., Ltd., U-4100 type), each spectral transmittance curve was measured, from which a maximum absorption wavelength λmax, a wavelength λ80 with which the transmittance becomes 80% on a shorter wavelength side than the maximum absorption wavelength with the transmittance at the maximum absorption wavelength set to 10%, the difference between the maximum absorption wavelength λmax and the wavelength λ80 (λmax−λ80), a maximum absorption coefficient εA in a wavelength of 430 to 550 nm, a maximum absorption coefficient εB in a wavelength of 670 to 730 nm, and a ratio of these (εB/εA) were calculated. Note that measurement of the dye (A9) was not performed because its solubility was low. Further, for each of the following spectral transmittance curves, an ultraviolet-visible spectrophotometer (made by Hitachi High Technologies Co., Ltd., U-4100 type) was used.

Solubility Evaluation [1]	Solubility ([1]; stirred two hours, visual) [mass %]	λ80 (wavelength with 80% transmittance on shorter wavelength side of λmax) [2] [nm]	λmax − λ80 [2] [nm]	εA (maximum absorption coefficient in a wavelength of 430 to 550 nm) [2]	εB (maximum absorption coefficient in a wavelength of 670 to 730 nm) [2]	εB/εA [2]	λmax (maximum absorption wavelength) [2] [nm]	Structure (SMILES)
C (5 mass % or less)	1	630	61	0.0130	1	76.9	691	CCCCCCCCS(=O)(=O)Nc1cc2c(cc1C1=C([O-])C(=c3cc4c(cc3NS(=O)(=O)CCCCCCCC)=[N+](C)C(C)C4(C)C)C1=O)C(C)(C)C(C)N2C (centres unmarked) [Dye A1-1]
		637	61	0.0065	1	154	698	CC1N(C)c2cc(NS(=O)(=O)C(F)(F)C(F)(F)C(F)(F)C(F)(F)F)c(C3=C([O-])C(=c4cc5c(cc4NS(=O)(=O)C(F)(F)C(F)(F)C(F)(F)C(F)(F)F)=[N+](C)C(C)C5(C)C)C3=O)cc2C1(C)C (centres unmarked) [Dye A1-3]
		633	62	0.0104	1	96.2	695	CC1N(C)c2cc(NS(=O)(=O)c3ccccc3C(F)(F)F)c(C3=C([O-])C(=c4cc5c(cc4NS(=O)(=O)c4ccccc4C(F)(F)F)=[N+](C)C(C)C5(C)C)C3=O)cc2C1(C)C (centres unmarked) [Dye A1-4]
		633	60	0.0139	1	71.9	693	CCCc1ccc(S(=O)(=O)Nc2cc3c(cc2C2=C([O-])C(=c4cc5c(cc4NS(=O)(=O)c4ccc(CCC)cc4)=[N+](C)C(C)C5(C)C)C2=O)C(C)(C)C(C)N3C)cc1 (centres unmarked) [Dye A1-6]
		633	60	0.0147	1	68.0	693	CCCCCc1ccc(S(=O)(=O)Nc2cc3c(cc2C2=C([O-])C(=c4cc5c(cc4NS(=O)(=O)c4ccc(CCCCC)cc4)=[N+](C)C(C)C5(C)C)C2=O)C(C)(C)C(C)N3C)cc1 (centres unmarked) [Dye A1-7]
		648	52	0.0110	1	90.9	700	CC(C)N1c2cc(NS(=O)(=O)c3ccc(F)cc3)c(C3=C([O-])C(=c4cc5c(cc4NS(=O)(=O)c4ccc(F)cc4)=[N+](C(C)C)C(C)C5(C)C)C3=O)cc2C(C)(C)C1C (centres unmarked) [Dye A1-11]
		648	52	0.0116	1	86.2	700	Cc1ccc(S(=O)(=O)Nc2cc3c(cc2C2=C([O-])C(=c4cc5c(cc4NS(=O)(=O)c4ccc(C)cc4)=[N+](C(C)C)C(C)C5(C)C)C2=O)C(C)(C)C(C)N3C(C)C)cc1 (centres unmarked) [Dye A1-12]
		645	53	0.0113	1	88.5	698	CCCS(=O)(=O)Nc1cc2c(cc1C1=C([O-])C(=c3cc4c(cc3NS(=O)(=O)CCC)=[N+](C(C)C)C(C)C4(C)C)C1=O)C(C)(C)C(C)N2C(C)C (centres unmarked) [Dye A1-13]
		647	52	0.0121	1	82.6	699	CCCc1ccc(S(=O)(=O)Nc2cc3c(cc2C2=C([O-])C(=c4cc5c(cc4NS(=O)(=O)c4ccc(CCC)cc4)=[N+](C(C)C)C(C)C5(C)C)C2=O)C(C)(C)C(C)N3C(C)C)cc1 (centres unmarked) [Dye A1-14]
		653	52	0.0081	1	123	705	CC(C)N1c2cc(NS(=O)(=O)C(F)(F)C(F)(F)C(F)(F)C(F)(F)F)c(C3=C([O-])C(=c4cc5c(cc4NS(=O)(=O)C(F)(F)C(F)(F)C(F)(F)C(F)(F)F)=[N+](C(C)C)C(C)C5(C)C)C3=O)cc2C(C)(C)C1C (centres unmarked) [Dye A1-17]
		649	50	0.0110	1	90.9	699	Cc1ccccc1S(=O)(=O)Nc1cc2c(cc1C1=C([O-])C(=c3cc4c(cc3NS(=O)(=O)c3ccccc3C)=[N+](C(C)C)C(C)C4(C)C)C1=O)C(C)(C)C(C)N2C(C)C (centres unmarked) [Dye A1-18]
		648	51	0.0126	1	79.4	699	CCCCCc1ccc(S(=O)(=O)Nc2cc3c(cc2C2=C([O-])C(=c4cc5c(cc4NS(=O)(=O)c4ccc(CCCCC)cc4)=[N+](C(C)C)C(C)C5(C)C)C2=O)C(C)(C)C(C)N3C(C)C)cc1 (centres unmarked) [Dye A1-19]
		651	52	0.0100	1	100	703	CC(C)N1c2cc(N3S(=O)(=O)C(F)(F)C(F)(F)S3(=O)=O)c(C3=C([O-])C(=c4cc5c(cc4N4S(=O)(=O)C(F)(F)C(F)(F)S4(=O)=O)=[N+](C(C)C)C(C)C5(C)C)C3=O)cc2C(C)(C)C1C (centres unmarked) [Dye A1-20]
		660	51	0.0122	1	82.0	711	CCC(C)(C)N1c2cc(NS(=O)(=O)C(F)(F)F)c(C3=C([O-])C(=c4cc5c(cc4NS(=O)(=O)C(F)(F)F)=[N+](C(C)(C)CC)C(C)C5(C)C)C3=O)cc2C(C)(C)C1C (centres unmarked) [Dye A1-22]
		663	50	0.0124	1	80.6	713	CCC(C)(C)N1c2cc(NS(=O)(=O)C(F)(F)C(F)(F)C(F)(F)C(F)(F)F)c(C3=C([O-])C(=c4cc5c(cc4NS(=O)(=O)C(F)(F)C(F)(F)C(F)(F)C(F)(F)F)=[N+](C(C)(C)CC)C(C)C5(C)C)C3=O)cc2C(C)(C)C1C (centres unmarked) [Dye A1-23]
		651	49	0.0110	1	89.7	700	CCCCCCCCS(=O)(=O)Nc1cc2c(cc1C1=C([O-])C(=c3cc4c(cc3NS(=O)(=O)CCCCCCCC)=[N+](C(C)C)C(C)(C)C4(C)C)C1=O)C(C)(C)C(C)(C)N2C(C)C [Dye A1-24]
		653	51	0.0130	1	77.6	704	CCCCCCCCS(=O)(=O)Nc1cc2c(cc1C1=C([O-])C(=c3cc4c(cc3NS(=O)(=O)CCCCCCCC)=[N+](C(C)C)C(C)(CC)C4(C)C)C1=O)C(C)(C)C(C)(CC)N2C(C)C (centres unmarked) [Dye A1-25]
		654	53	0.0140	1	71.6	707	CCCCCCCCS(=O)(=O)Nc1cc2c(cc1C1=C([O-])C(=c3cc4c(cc3NS(=O)(=O)CCCCCCCC)=[N+](C(C)C)C(C)(C(C)C)C4(C)C)C1=O)C(C)(C)C(C)(C(C)C)N2C(C)C (centres unmarked) [Dye A1-26]

Reference: patent US10351718B2, “Optical filter and imaging device” (AGC Inc., priority 2015, dated 2019)
